Assay results taken from patent publication US11583542B2, “Compositions of bile acids and phenylbutyrate compounds” (Amylyx Pharmaceuticals Inc., priority 2019, dated 2023).
Blank lines part the entries; values can stand above or below the compound they belong to.

Tests used:
Type in all cases: physicochemical
[1] = Forced degradation studies (thermal, thermal-humidity, light, oxidation, acid, base); conditions: for degradation of API: API alone
From the text: Each API and the final formulation (referred to as “AMX powder in sachet”) containing both APIs were also subjected to forced degradation studies. The study included stressing samples of PB (sodium phenylbutyrate) API, TURSO API, placebo, and AMX Powder in Sachet under thermal, thermal-humidity, light, oxidation, acid, or base conditions (Table 49).

[2] = Bulk density, tapped density, Hausner ratio and Carr's index; conditions: powder; calculated from bulk and tapped density
Protocol: Bulk density was calculated for each API and blend by gently pouring powder into a 25 mL graduated cylinder. Tapped density was calculated using a tapped volumeter to compact each powder using 100-tap increments until volume change was <5%. Hausner ratio and Carr's index were then calculated using bulk density and tapped density. Formulation C was selected based on flow characteristics. Carr's index, in addition to being a measure of compressibility, may also be used to determine the flow properties of a material. […] Acceptable flow property (as determined by the packaging equipment used) was a minimum of a Carr's index of under 25, with a Carr's index of below 20 being preferable.
Each API was blended and roller compacted with excipients separately to determine if the proximity of the dual APIs in the blend or granules was responsible for agglomeration. The resulting granules were then recombined and blended before filling test sachets. Bulk and tapped densities of each blend were measured prior to roller compaction. For this experiment, all silica were used at 1% W/W. Aerosil 200 was used as a negative control while Syloid 244FP and Syloid 63FP were used to remove moisture from the APIs to determine if APIs would agglomerate with reduced local levels of water. […]

[3] = Dynamic Vapor Sorption (DVS) testing
From the text: Samples of NaPB, TURSO, and modified formulation C1 blend were subjected to DVS testing to determine the magnitude of weight gain due to humidity.

[4] = Loss on Drying (LOD) testing; conditions: excipients
Protocol: After storage in sealed bottles for about one week, slight agglomeration of blends was observed.
LOD testing was performed on recovered agglomerated blend (PD2016-015-33B) after ˜2 hours of drying at 50° C. to determine the degree of moisture uptake. Results were compared against a non-agglomerated blend that had been stored in a sealed bottle (PD2016-015-29A).

[5] = Base 3 Days (1.0N NaOH, 50° C.)
[6] = Base 7 Days (1.0N NaOH, 50° C.)
[7] = Thermal-Humidity (85° C. + 1.0 mL water, 10 days)

- degradation of API ([1]; any of the forced degradation conditions studied): did not degrade
- % PB / % (PB) Potency ([1]; Acid 3 Days (1.0N HCl, 50° C.)): 99.1%
- % PB remaining ([1]; Acid 3 Days (1.0N HCl, 50° C.)): 99.9%
- % RMBD (Relative Mass Balance Deficit), PB ([1]; Acid 3 Days (1.0N HCl, 50° C.)): 99.0%
- % Total RS / % Total PB Impurity ([1]; Acid 3 Days (1.0N HCl, 50° C.)): 1.18%
- Mass Balance / PB Sum ([1]; Acid 3 Days (1.0N HCl, 50° C.)): 100.28
- % PB / % (PB) Potency ([1]; Acid 7 Days (1.0N HCl, 50° C.)): 99.7%
- % PB remaining ([1]; Acid 7 Days (1.0N HCl, 50° C.)): 100.5%
- % RMBD (Relative Mass Balance Deficit), PB ([1]; Acid 7 Days (1.0N HCl, 50° C.)): 99.6%
- % Total RS / % Total PB Impurity ([1]; Acid 7 Days (1.0N HCl, 50° C.)): 1.14%
- Mass Balance / PB Sum ([1]; Acid 7 Days (1.0N HCl, 50° C.)): 100.84
- % PB remaining [1, 5]: 99.7%
- % RMBD (Relative Mass Balance Deficit), PB [1, 5]: 98.8%
- % Total RS / % Total PB Impurity [1, 5]: 1.11%
- Mass Balance / PB Sum [1, 5]: 100.01
- % PB / % (PB) Potency [1, 6]: 99.8%
- % PB remaining [1, 6]: 100.6%
- % RMBD (Relative Mass Balance Deficit), PB [1, 6]: 99.6%
- % Total RS / % Total PB Impurity [1, 6]: 1.10%
- Mass Balance / PB Sum [1, 6]: 100.90
- % PB / % (PB) Potency ([1]; Control): 99.2%
- % Total RS / % Total PB Impurity ([1]; Control): 2.07%
- Mass Balance / PB Sum ([1]; Control): 101.27
- % PB / % (PB) Potency ([1]; Light (1 × ICH condition)): 98.3%
- % PB remaining ([1]; Light (1 × ICH condition)): 99.3%
- % RMBD (Relative Mass Balance Deficit), PB ([1]; Light (1 × ICH condition)): 99.1%
- % Total RS / % Total PB Impurity ([1]; Light (1 × ICH condition)): 0.74%
- Mass Balance / PB Sum ([1]; Light (1 × ICH condition)): 99.04
- % PB / % (PB) Potency ([1]; Light Control): 99.0%
- % Total RS / % Total PB Impurity ([1]; Light Control): 0.96%
- Mass Balance / PB Sum ([1]; Light Control): 99.96
- % PB remaining ([1]; Oxidation (3% H2O2)): 99.4%
- % RMBD (Relative Mass Balance Deficit), PB ([1]; Oxidation (3% H2O2)): 100.5%
- % Total RS / % Total PB Impurity ([1]; Oxidation (3% H2O2)): 3.13%
- Mass Balance / PB Sum ([1]; Oxidation (3% H2O2)): 101.73
- % PB / % (PB) Potency ([1]; Thermal (85° C., 10 days)): 98.9%
- % PB remaining ([1]; Thermal (85° C., 10 days)): 99.7%
- % RMBD (Relative Mass Balance Deficit), PB ([1]; Thermal (85° C., 10 days)): 101.5%
- % Total RS / % Total PB Impurity ([1]; Thermal (85° C., 10 days)): 3.93%
- Mass Balance / PB Sum ([1]; Thermal (85° C., 10 days)): 102.83
- % PB / % (PB) Potency [1, 7]: 99.3%
- % PB remaining [1, 7]: 100.1%
- % RMBD (Relative Mass Balance Deficit), PB [1, 7]: 99.2%
- % Total RS / % Total PB Impurity [1, 7]: 1.16%
- Mass Balance / PB Sum [1, 7]: 100.48
- Carr's index [2]: 39.2
- DVS change in mass ([3]; above 45% RH): massive fluctuations in mass
- Fluctuations in mass ([3]; moisture uptake): up to 50%
Compound: O=C(O)CCCc1ccccc1 [NaPB, sodium phenylbutyrate]

- degradation of API ([1]; Thermal-Humidity condition): no TURSO peak was detected
- degradation of API ([1]; acidic condition, by Day 7): degraded slightly
- degradation of API ([1]; base condition, by Day 3): degraded slightly
- degradation of API ([1]; base condition, by Day 7): ~17%
- degradation of API ([1]; light condition): did not degrade
- degradation of API ([1]; oxidation condition, by Day 3): degraded slightly
- degradation of API ([1]; thermal condition): did not degrade
- % Degradation Observed / Conclusion ([1]; Acid: 10 mL of 1.0N HCl per sample for 3 days at 50° C., listed as TURSO API): None
- % Degradation Observed / Conclusion ([1]; Acid: 10 mL of 1.0N HCl per sample for 7 days at 50° C.): ~3%
- % Degradation Observed / Conclusion ([1]; Base: 10 mL of 1.0N NaOH per sample for 3 days at 50° C.): ~5%
- % Degradation Observed / Conclusion ([1]; Base: 10 mL of 1.0N NaOH per sample for 7 days at 50° C.): ~17%
- % Degradation Observed / Conclusion ([1]; Light: 1 × ICH condition (White light NLT 1.2 million lux hours and UV light NLT 200 W hours/m^2), listed as TURSO API): None
- % Degradation Observed / Conclusion ([1]; Oxidation: 10 mL of 3% H2O2 per sample, listed as TURSO API): 3%
- % Degradation Observed / Conclusion ([1]; Thermal-Humidity: 85° C. + 1.0 mL water per sample for 10 days, listed as TURSO API): 100%
- % Degradation Observed / Conclusion ([1]; Thermal: 85° C. for 10 days, listed as TURSO API): None
- Carr's index [2]: 24.2
Compound: C[C@H](CCC(=O)NCCS(=O)(=O)O)[C@H]1CC[C@H]2[C@@H]3[C@@H](O)C[C@@H]4C[C@H](O)CC[C@]4(C)[C@H]3CC[C@]12C [TURSO, tauroursodeoxycholic acid]

- water uptake by loss-on-drying (LOD) testing [4]: neither exhibited massive water uptake
Compound: OC[C@@H](O)[C@@H](O)[C@H](O)[C@@H](O)CO [sorbitol]

- % RMBD, TUDCA ([1]; Acid 3 Days (1.0N HCl, 50° C.)): 99.8%
- % TUDCA / % (TUDCA) Potency ([1]; Acid 3 Days (1.0N HCl, 50° C.)): 100.0%
- % TUDCA remaining ([1]; Acid 3 Days (1.0N HCl, 50° C.)): 99.8%
- % Total RS / % Total TUDCA Impurity ([1]; Acid 3 Days (1.0N HCl, 50° C.)): 0.23%
- Sum / TUDCA Sum ([1]; Acid 3 Days (1.0N HCl, 50° C.)): 100.23
- % RMBD, TUDCA ([1]; Acid 7 Days (1.0N HCl, 50° C.)): 97.0%
- % TUDCA / % (TUDCA) Potency ([1]; Acid 7 Days (1.0N HCl, 50° C.)): 97.2%
- % TUDCA remaining ([1]; Acid 7 Days (1.0N HCl, 50° C.)): 97.0%
- % Total RS / % Total TUDCA Impurity ([1]; Acid 7 Days (1.0N HCl, 50° C.)): 0.20%
- Sum / TUDCA Sum ([1]; Acid 7 Days (1.0N HCl, 50° C.)): 97.40
- % Degradation Observed / Conclusion ([1]; Acid: 10 mL of 1.0N HCl per sample for 3 days at 50° C.): No significant
- % RMBD, TUDCA [1, 5]: 94.9%
- % TUDCA / % (TUDCA) Potency [1, 5]: 95.1%
- % TUDCA remaining [1, 5]: 94.9%
- % Total RS / % Total TUDCA Impurity [1, 5]: 0.22%
- Sum / TUDCA Sum [1, 5]: 95.32
- % RMBD, TUDCA [1, 6]: 82.6%
- % TUDCA / % (TUDCA) Potency [1, 6]: 82.8%
- % TUDCA remaining [1, 6]: 82.6%
- % Total RS / % Total TUDCA Impurity [1, 6]: 0.18%
- Sum / TUDCA Sum [1, 6]: 82.98
- % TUDCA / % (TUDCA) Potency ([1]; Control): 100.2%
- % Total RS / % Total TUDCA Impurity ([1]; Control): 0.22%
- Sum / TUDCA Sum ([1]; Control): 100.42.
- % RMBD, TUDCA ([1]; Light (1 × ICH condition)): 103.2%
- % TUDCA / % (TUDCA) Potency ([1]; Light (1 × ICH condition)): 99.5%
- % TUDCA remaining ([1]; Light (1 × ICH condition)): 103.2%
- % Total RS / % Total TUDCA Impurity ([1]; Light (1 × ICH condition)): 0.24%
- Sum / TUDCA Sum ([1]; Light (1 × ICH condition)): 99.74
- % TUDCA / % (TUDCA) Potency ([1]; Light Control): 96.4%
- % Total RS / % Total TUDCA Impurity ([1]; Light Control): 0.22%
- Sum / TUDCA Sum ([1]; Light Control): 96.62
- % Degradation Observed / Conclusion ([1]; Light: 1 × ICH condition (White light NLT 1.2 million lux hours and UV light NLT 200 W hours/m^2)): No significant
- % RMBD, TUDCA ([1]; Oxidation (3% H2O2)): 98.8%
- % TUDCA / % (TUDCA) Potency ([1]; Oxidation (3% H2O2)): 97.1%
- % TUDCA remaining ([1]; Oxidation (3% H2O2)): 93.9%
- % Total RS / % Total TUDCA Impurity ([1]; Oxidation (3% H2O2)): 1.36%
- Sum / TUDCA Sum ([1]; Oxidation (3% H2O2)): 98.46
- % Degradation Observed / Conclusion ([1]; Oxidation: 10 mL of 3% H2O2 per sample): ~3%
- % RMBD, TUDCA ([1]; Thermal (85° C., 10 days)): 100.5%
- % TUDCA / % (TUDCA) Potency ([1]; Thermal (85° C., 10 days)): 100.6%
- % TUDCA remaining ([1]; Thermal (85° C., 10 days)): 100.4%
- % Total RS / % Total TUDCA Impurity ([1]; Thermal (85° C., 10 days)): 0.28%
- Sum / TUDCA Sum ([1]; Thermal (85° C., 10 days)): 100.88
- % RMBD, TUDCA [1, 7]: 0.0%
- % TUDCA remaining [1, 7]: 0%
- Sum / TUDCA Sum [1, 7]: 0.00
- % Degradation Observed / Conclusion ([1]; Thermal-Humidity: 85° C. + 1.0 mL water per sample for 10 days): Full degradation/
- % Degradation Observed / Conclusion ([1]; Thermal: 85° C. for 10 days): No significant
Compound: C[C@H](CCC(=O)NCCS(=O)(=O)O)[C@H]1CC[C@H]2[C@@H]3[C@@H](O)C[C@@H]4C[C@H](O)CC[C@]4(C)[C@H]3CC[C@]12C [TUDCA API]
